Molecular target: T1, GPR119 (WT mouse descending colon mucosa) (Mus musculus, UniProt Q7TQP3)
T1 construct: native full-length receptor in L-cells of intact mouse colonic mucosa (Ussing chamber); no recombinant protein
T1 sequence (Q7TQP3 1-335): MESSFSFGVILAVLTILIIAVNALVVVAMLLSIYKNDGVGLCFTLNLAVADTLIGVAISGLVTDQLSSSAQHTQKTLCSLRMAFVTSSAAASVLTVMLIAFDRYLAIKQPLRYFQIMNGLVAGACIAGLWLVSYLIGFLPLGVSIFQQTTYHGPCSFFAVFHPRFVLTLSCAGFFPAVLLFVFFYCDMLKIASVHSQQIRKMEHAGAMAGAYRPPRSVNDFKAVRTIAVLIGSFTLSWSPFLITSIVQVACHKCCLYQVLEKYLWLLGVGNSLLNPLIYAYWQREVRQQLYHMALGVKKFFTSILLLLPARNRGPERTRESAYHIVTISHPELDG
Test: short-circuit current (Isc) in native mouse descending colon mucosa, Ussing chamber
Conditions: agonist, apical addition, indirect tissue read-out (PYY-mediated fall in Isc) after 10 nM VIP, 11.1 mM glucose
Description: short-circuit current (Isc) in native mouse descending colon mucosa, Ussing chamber on GPR119 (WT mouse descending colon mucosa)

Row | Compound | EC50 [µM] | EC50 (partial agonist) [µM]
1 | CCCCCCCC/C=C\CCCCCCCC(=O)OC(CO)CO [2-OG] | 4.9 | –
2 | CC(C)c1noc(C2CCN(c3ncnc(Nc4ccc(S(C)(=O)=O)cc4F)c3[N+](=O)[O-])CC2)n1 [AR231453] | – | 0.0012
3 | CCCCCCCC/C=C\CCCCCCCC(=O)NCCO [OEA] | 14.7 | –
4 | AR435707 | 0.0277 | –
5 | AR440006 | 0.17 | –
